From patent publication EP0409236A1, “Optically active naphthylethanol derivative” (Eisai Co., Ltd., priority 1989, dated 1991)
Where “and” joins values, the source holds several entries; their conditions need not be identical. Identical values can stand only once. Counter-ions that a name gives are not always drawn.

Experiments:
[1] = tested on: pyramidal cells in the CA1 region of the gerbil hippocampus; assay: Effect on ischemia-induced neuronal damage in the gerbil hippocampus; assay type: in vivo; conditions: i.p., one hour before 5-min ischemia, normal pyramidal cells in 0.105 x 1.175 mm² of CA1, one week later
Excerpt: Effect on ischemia-induced neuronal damage in the gerbil hippo- campus
Kirino reported that a brief cerebral ischemia caused the destruction of the pyramidal cells in the CA1 region of the gerbil hippocampus [Brain Res. 239: 57-69 (1982)]. Effect of the compound(B) on this ischemia-induced neuronal damage was examined.
The compounds were intraperitoneally administered to each animal and one hour later 5-min ischemia was produced by clamping both common carotid arteries. One week after the 5-min ischemia gerbils were fixed by transcardiac perfusion of fixative which consisted of 4% formaldehyde in phosphate buffer (pH 7.4). The fixed brain was embedded in paraffin and semi-thin (3 µm) sections were cut at a level of the dorsal hippocampus. The sections were stained with feulgen for cell counting by an image-analyzing computer. Normal pyramidal cells in the area of 0.105 x 1.175 mm² were counted.

male ddy mice = assay: Effect on KCN-induced mortality in mice; conditions: mouse, in vivo; hydrochloride

Row | Compound | neuronal density mean ± SEM ([1]; 1 mg/kg) | neuronal density mean ± SEM ([1]; 3 mg/kg) | neuronal density mean ± SEM ([1]; 10 mg/kg) | Survival time (sec) mean ± SEM (male ddy mice) | neuronal density mean ± SEM ([1]; 30 mg/kg)
1 | O=C(c1ccc(F)cc1)C1CCN(C[C@@H](O)c2ccc3ccccc3c2)CC1 [d-isomer of compound (B), hydrochloride] | 9.3 ± 4.6 | 16.5 ± 4.0 | 34.6 ± 1.1 | 52.4 ± 2.4 s and 50.1 ± 1.6 s and 62.5 ± 4.4 s | –
2 | (R)-(-)-2-[4-(p-Fluorobenzoyl)-1-piperidylj-1-naphthylethanol hydrochloride [ℓ-isomer of compound (B)] | – | 1.9 ± 0.5 | 17.2 ± 5.2 | 40.2 ± 1.8 s and 43.0 ± 1.8 s and 44.8 ± 1.9 s | 12.0 ± 3.4
